# From patent US20110040086A1, “Novel Beta-Lactam Antibiotics, Methods for Their Production, and Their Use” (DRITTE PATENTPORTFOLIO BETEILIGUNGSGESELLSCHAFT MB, priority 2007, published 2011)
# How the values were obtained:
# [1] = tested on: B. subtilis AWD 166; assay: agar diffusion test (antimicrobial effect); format: cell-based, Bacillus subtilis
# Method in brief: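 Nutrient agar seeded with B. subtilis AWD 166 to give dense non-confluent colonies; compounds in methanol or distilled water applied to discs at 10, 50, 100 μg. After 20 h at 37 °C, inhibition zone diameter measured in mm.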
# [2] = tested on: Escherichia coli SBUG 1135; assay: agar diffusion test (Test System 1, antimicrobial effect); format: cell-based; parameters: key: r = resistant (no detectable zone of inhibition)
# Method in brief: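 E. coli SBUG 1135 grown 17 h at 37° C, 180 rpm, diluted 1:100 and seeded in nutrient agar at ~10^6 cells. Discs loaded with 10, 50 or 100 μg compound (methanol or water); inhibition-zone diameter (mm) read after 20 h at 37° C.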
# [3] = tested on: Enterococcus faecalis 769; assay: agar diffusion test (Test System II, multi-resistant germs); format: cell-based; parameters: key: r = resistant (no detectable zone of inhibition)
# Method in brief: (§1)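 Semi-synthetic compounds were tested by disc diffusion at three loadings, 10, 50 and 100 μg per disc. Bacteria at McFarland 0.5 were spread on Müller-Hinton agar II; after 18-20 h at 37 °C the inhibition zone diameter was taken.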
# [4] = tested on: E. faecalis 945; assay: as above; format: cell-based, Enterococcus faecalis; parameters: key: r = resistant (no detectable zone of inhibition)
# Method in brief: as §1
# [5] = tested on: S. aureus 33490; assay: as above; format: cell-based, Staphylococcus aureus; parameters: key: r = resistant (no detectable zone of inhibition)
# Method in brief: as §1
# [6] = tested on: S. aureus 34289; assay: as above; format: cell-based, Staphylococcus aureus; parameters: key: r = resistant (no detectable zone of inhibition)
# Method in brief: as §1
# [7] = tested on: S. aureus 36881; assay: as above; format: cell-based, Staphylococcus aureus; parameters: key: r = resistant (no detectable zone of inhibition)
# Method in brief: as §1
# [8] = tested on: S. aureus 39105; assay: as above; format: cell-based, Staphylococcus aureus; parameters: key: r = resistant (no detectable zone of inhibition)
# Method in brief: as §1
# [9] = tested on: S. aureus 520; assay: as above; format: cell-based, Staphylococcus aureus; parameters: key: r = resistant (no detectable zone of inhibition)
# Method in brief: as §1
# [10] = tested on: S. aureus 526; assay: as above; format: cell-based, Staphylococcus aureus; parameters: key: r = resistant (no detectable zone of inhibition)
# Method in brief: as §1
# [11] = tested on: S. aureus North Germany strain; assay: as above; format: cell-based, Staphylococcus aureus; parameters: key: r = resistant (no detectable zone of inhibition)
# Method in brief: as §1
# [12] = tested on: S. aureus 38418; assay: as above; format: cell-based, Staphylococcus aureus
# Method in brief: as §1
# [13] = tested on: S. aureus ATCC 6538; assay: as above; format: cell-based, Staphylococcus aureus
# Method in brief: as §1
# [14] = tested on: Staphylococcus aureus ATCC 6538; assay: mouse infected with Staphylococcus aureus infection model (survival); format: in vivo, BALB/c mice; conditions: 2 × 0.5 mg (25 mg/kg) i.p.
# Method in brief: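 BALB/c mice, at least 3 per group, made neutropenic with cyclophosphamide i.p. (250 mg/kg day 0, 100 mg/kg day 2). Infected i.p. on day 3 with 10 μl/g of S. aureus suspension at OD550 0.6 (ca. 10^10-10^12 CFU). Antibiotic given i.p. in PBS with 3% DMSO 30 min post-infection, then repeated; survival recorded.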
molecule,measurement,setting,value
"7-[2-(2-ethoxycarbonyl-3,6-dioxocyclohexa-1,4-dienylamino)-2-(4-hydroxyphenyl)-acetylamino]-desacetoxycephalosporanic acid [1d]",Diameter of zone of inhibition,[1]; Quantity n 0.029,22 mm
same,Diameter of zone of inhibition,[1]; Quantity n 0.14,30 mm
same,Diameter of zone of inhibition,[1]; Quantity n 0.29,34 mm
same,Diameter of zone of inhibition,[2]; Quantity n 0.029,r
same,Diameter of zone of inhibition,[2]; Quantity n 0.14,12 mm
same,Diameter of zone of inhibition,[2]; Quantity n 0.29,16 mm
same,Diameter of zone of inhibition,[3]; Quantity n 0.029,r
same,Diameter of zone of inhibition,[3]; Quantity n 0.14,r
same,Diameter of zone of inhibition,[3]; Quantity n 0.29,r
same,Diameter of zone of inhibition,[4]; Quantity n 0.029,r
same,Diameter of zone of inhibition,[4]; Quantity n 0.14,r
same,Diameter of zone of inhibition,[4]; Quantity n 0.29,r
same,Diameter of zone of inhibition,[5]; Quantity n [μmol] 0.029,r
same,Diameter of zone of inhibition,[5]; Quantity n [μmol] 0.14,14 mm
same,Diameter of zone of inhibition,[5]; Quantity n [μmol] 0.29,16 mm
same,Diameter of zone of inhibition,[6]; Quantity n [mol] 0.029,r
same,Diameter of zone of inhibition,[6]; Quantity n [mol] 0.14,r
same,Diameter of zone of inhibition,[6]; Quantity n [mol] 0.29,r
same,Diameter of zone of inhibition,[7]; Quantity n 0.029,r
same,Diameter of zone of inhibition,[7]; Quantity n 0.14,14 mm
same,Diameter of zone of inhibition,[7]; Quantity n 0.29,18 mm
same,Diameter of zone of inhibition,[8]; Quantity n 0.029,r
same,Diameter of zone of inhibition,[8]; Quantity n 0.14,r
same,Diameter of zone of inhibition,[8]; Quantity n 0.29,14 mm
same,Diameter of zone of inhibition,[9]; Quantity n [mol] 0.029,r
same,Diameter of zone of inhibition,[9]; Quantity n [mol] 0.14,r
same,Diameter of zone of inhibition,[9]; Quantity n [mol] 0.29,r
same,Diameter of zone of inhibition,[10]; Quantity n 0.029,r
same,Diameter of zone of inhibition,[10]; Quantity n 0.14,r
same,Diameter of zone of inhibition,[10]; Quantity n 0.29,r
same,Diameter of zone of inhibition,[11]; Quantity n 0.029,r
same,Diameter of zone of inhibition,[11]; Quantity n 0.14,10 mm
same,Diameter of zone of inhibition,[11]; Quantity n 0.29,12 mm
same,Diameter of zone of inhibition,[12]; Quantity n [mol] 0.029,10 mm
same,Diameter of zone of inhibition,[12]; Quantity n [mol] 0.14,20 mm
same,Diameter of zone of inhibition,[12]; Quantity n [mol] 0.29,24 mm
same,Diameter of zone of inhibition,[13]; Quantity n 0.029,14 mm
same,Diameter of zone of inhibition,[13]; Quantity n 0.14,22 mm
same,Diameter of zone of inhibition,[13]; Quantity n 0.29,26 mm
same,Survival/tested mice n/n,[14],4/6
"NC(=O)C1=C(NC(C(=O)NC2C(=O)N3C(C(=O)O)=C(Cl)CSC23)c2ccccc2)C(=O)C=CC1=O (centres unmarked) [1j, 3-chlorine-7-[2-(2-carbamoyl-3,6-dioxocyclohexa-1,4-dienylamino)-2-phenyl-acetylamino]-8-oxo-1-thia-5-azabicyclo[4.2.0]oct-3-en-4-carboxylic acid]",Diameter of zone of inhibition,[1]; Quantity n 0.02,30 mm
same,Diameter of zone of inhibition,[1]; Quantity n 0.1,38 mm
same,Diameter of zone of inhibition,[1]; Quantity n 0.2,40 mm
same,Diameter of zone of inhibition,[2]; Quantity n 0.02,18 mm
same,Diameter of zone of inhibition,[2]; Quantity n 0.1,26 mm
same,Diameter of zone of inhibition,[2]; Quantity n 0.2,28 mm
same,Diameter of zone of inhibition,[3]; Quantity n 0.02,r
same,Diameter of zone of inhibition,[3]; Quantity n 0.1,8 mm
same,Diameter of zone of inhibition,[3]; Quantity n 0.2,12 mm
same,Diameter of zone of inhibition,[4]; Quantity n 0.02,r
same,Diameter of zone of inhibition,[4]; Quantity n 0.1,r
same,Diameter of zone of inhibition,[4]; Quantity n 0.2,r
same,Diameter of zone of inhibition,[5]; Quantity n [μmol] 0.02,16 mm
same,Diameter of zone of inhibition,[5]; Quantity n [μmol] 0.1,24 mm
same,Diameter of zone of inhibition,[5]; Quantity n [μmol] 0.2,26 mm
same,Diameter of zone of inhibition,[6]; Quantity n [mol] 0.02,r
same,Diameter of zone of inhibition,[6]; Quantity n [mol] 0.1,r
same,Diameter of zone of inhibition,[6]; Quantity n [mol] 0.2,r
same,Diameter of zone of inhibition,[7]; Quantity n 0.02,r
same,Diameter of zone of inhibition,[7]; Quantity n 0.1,12 mm
same,Diameter of zone of inhibition,[7]; Quantity n 0.2,16 mm
same,Diameter of zone of inhibition,[8]; Quantity n 0.02,r
same,Diameter of zone of inhibition,[8]; Quantity n 0.1,16 mm
same,Diameter of zone of inhibition,[8]; Quantity n 0.2,18 mm
same,Diameter of zone of inhibition,[9]; Quantity n [mol] 0.02,r
same,Diameter of zone of inhibition,[9]; Quantity n [mol] 0.1,8 mm
same,Diameter of zone of inhibition,[9]; Quantity n [mol] 0.2,12 mm
same,Diameter of zone of inhibition,[10]; Quantity n 0.02,r
same,Diameter of zone of inhibition,[10]; Quantity n 0.1,r
same,Diameter of zone of inhibition,[10]; Quantity n 0.2,r
same,Diameter of zone of inhibition,[11]; Quantity n 0.02,r
same,Diameter of zone of inhibition,[11]; Quantity n 0.1,12 mm
same,Diameter of zone of inhibition,[11]; Quantity n 0.2,16 mm
same,Diameter of zone of inhibition,[12]; Quantity n [mol] 0.02,22 mm
same,Diameter of zone of inhibition,[12]; Quantity n [mol] 0.1,30 mm
same,Diameter of zone of inhibition,[12]; Quantity n [mol] 0.2,34 mm
same,Diameter of zone of inhibition,[13]; Quantity n 0.02,28 mm
same,Diameter of zone of inhibition,[13]; Quantity n 0.1,34 mm
same,Diameter of zone of inhibition,[13]; Quantity n 0.2,38 mm
same,Survival/tested mice n/n,[14],3/3
